Values of other authors as cited in publication PMC2660605 (Biochemistry, 2008).

Experiments:
[1] = system: HIV-1 with IN mutation E92Q
[2] = system: HIV-1 with IN mutation T66I
[3] = target: HIV-1 integrase E92Q (Human immunodeficiency virus type 1 group M subtype B, UniProt P12497, E1239Q); conditions: E92Q mutant

COc1cc2c(cc1Cc1cccc(Cl)c1F)c(=O)c(C(=O)O)cn2[C@H](CO)C(C)C [Elvitegravir, elvitegravir]
reduced susceptibility [1]: 36 fold | reduced susceptibility [2]: 37 fold | resistance level [3]: 4.3 fold
